Values of other authors in patent US20010028878A1, “In vitro maturation of human oocytes in one day” (priority 1998, published 2001).

Tested on: human oocytes
Details: presence of insulin in the culture medium; recent research

Q: With insulin as the substance, how does the “effect on the chance for successful pregnancy” value read?
A: negative effect
